Test system: VSV
Assay type: cell-based, Vesicular Stomatitis Virus

With Ammonium Iron(III) Citrate the VSV binding was “no affect”.
